Where “and” joins values, the source holds several entries; their conditions need not be identical. Identical values can stand only once. Like-named read-outs stand apart in the source and are kept apart here.
Columns and labels:
CYP2A = assay: In vivo enzyme induction: ethoxycoumarin O-deethylase; parameters: species or system Wistar rats; settings: rats, 3–100 mg/kg p.o. once daily 7 days
NAT2 = assay: In vivo enzyme induction: N-acetyltransferase, procainamide; parameters: species or system Wistar rats; settings: rats, 3–100 mg/kg p.o. once daily 7 days
[1] = ref Heinecke & Thiel, 2001; cited from earlier work
[2] = Excretion balance of [14C] imepitoin after oral and intravenous dosing; format: in vivo, beagle dogs; settings: for Fraction excreted, Total / Fraction excreted, Urine + Cage wash / Fraction excreted, Feces: cumulative radioactivity, mean (CV %)
NAT1 = assay: In vivo enzyme induction: N-acetyltransferase, p-aminobenzoic acid; parameters: species or system Wistar rats; settings: rats, 3–100 mg/kg p.o. once daily 7 days
CYP2A6 = CYP2A6 (Homo sapiens, UniProt P11509); assay: In vitro enzyme inhibition, recombinant CYP, fluorescent metabolites; format: in vitro ADME
CYP2A6, sequence (P11509 whole entry): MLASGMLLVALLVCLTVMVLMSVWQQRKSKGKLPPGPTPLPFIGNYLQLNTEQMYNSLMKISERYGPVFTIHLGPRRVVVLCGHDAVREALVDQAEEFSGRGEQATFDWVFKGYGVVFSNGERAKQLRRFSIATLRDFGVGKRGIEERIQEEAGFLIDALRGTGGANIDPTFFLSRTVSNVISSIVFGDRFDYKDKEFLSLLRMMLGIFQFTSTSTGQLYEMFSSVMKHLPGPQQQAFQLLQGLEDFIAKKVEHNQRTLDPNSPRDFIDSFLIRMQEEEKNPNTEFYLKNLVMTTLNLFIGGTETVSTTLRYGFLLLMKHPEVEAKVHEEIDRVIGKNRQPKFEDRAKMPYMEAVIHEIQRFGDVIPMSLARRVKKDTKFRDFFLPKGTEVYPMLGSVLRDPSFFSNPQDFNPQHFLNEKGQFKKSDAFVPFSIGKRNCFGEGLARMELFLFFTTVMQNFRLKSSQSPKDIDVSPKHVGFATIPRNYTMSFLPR

CYP2C8 = CYP2C8 (Homo sapiens, UniProt P10632); assay: as above; format: in vitro ADME; settings: up to the highest concentration tested (100 μM)
CYP2C8, sequence (P10632 whole entry): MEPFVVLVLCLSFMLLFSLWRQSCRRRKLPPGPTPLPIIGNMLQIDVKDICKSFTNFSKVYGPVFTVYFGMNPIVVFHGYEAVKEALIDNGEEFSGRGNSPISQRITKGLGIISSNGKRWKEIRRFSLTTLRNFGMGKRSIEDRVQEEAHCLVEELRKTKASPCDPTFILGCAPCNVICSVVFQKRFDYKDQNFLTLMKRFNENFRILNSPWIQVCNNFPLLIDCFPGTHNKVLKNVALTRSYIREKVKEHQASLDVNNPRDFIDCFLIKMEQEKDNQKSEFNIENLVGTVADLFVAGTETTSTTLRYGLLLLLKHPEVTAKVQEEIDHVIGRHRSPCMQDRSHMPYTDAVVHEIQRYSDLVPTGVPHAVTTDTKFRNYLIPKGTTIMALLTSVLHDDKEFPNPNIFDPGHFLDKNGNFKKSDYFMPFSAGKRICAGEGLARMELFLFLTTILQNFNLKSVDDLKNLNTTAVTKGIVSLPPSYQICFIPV

plasma protein [3] = assay: In vitro plasma protein binding; format: in vitro ADME, beagle dogs; settings: beagle, dog, heparinized plasma, mean ± SEM, n=3
CYP2C19 = CYP2C19 (Homo sapiens, UniProt P33261); assay: In vitro enzyme inhibition, recombinant CYP, fluorescent metabolites; format: in vitro ADME
CYP2C19, sequence (P33261 whole entry): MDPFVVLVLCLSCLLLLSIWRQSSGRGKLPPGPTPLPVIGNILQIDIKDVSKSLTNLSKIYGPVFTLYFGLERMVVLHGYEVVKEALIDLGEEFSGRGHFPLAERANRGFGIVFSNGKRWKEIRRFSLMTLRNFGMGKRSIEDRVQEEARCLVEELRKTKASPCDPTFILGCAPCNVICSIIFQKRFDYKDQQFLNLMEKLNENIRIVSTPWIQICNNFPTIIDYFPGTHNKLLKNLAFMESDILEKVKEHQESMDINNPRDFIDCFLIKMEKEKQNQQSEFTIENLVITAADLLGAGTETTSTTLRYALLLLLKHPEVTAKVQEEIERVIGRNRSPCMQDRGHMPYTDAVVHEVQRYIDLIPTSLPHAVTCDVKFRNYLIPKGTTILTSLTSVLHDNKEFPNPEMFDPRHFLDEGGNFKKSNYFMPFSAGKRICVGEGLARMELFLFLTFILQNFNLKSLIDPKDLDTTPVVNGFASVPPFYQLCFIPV

[4] = Dose linearity of imepitoin after oral dosing; format: in vivo, beagle dogs; settings: for Cmax / Tmax: both, beagle, dog, plasma, po; for Tlag obs: enteric-coated capsules, mean ± SEM, n=6
plasma proteins = assay: Reversibility of protein binding; format: in vitro ADME; settings: human plasma, incubation up to 2 h at 37 °C, TCA precipitation
CYP2E1 = assay: In vivo enzyme induction: nitrophenol hydroxylase; parameters: species or system Wistar rats; settings: rats, 3–100 mg/kg p.o. once daily 7 days
CYP1A2 = CYP1A2 (Homo sapiens, UniProt P05177); assay: In vitro enzyme inhibition, recombinant CYP, fluorescent metabolites; format: in vitro ADME
CYP1A2, sequence (P05177 whole entry): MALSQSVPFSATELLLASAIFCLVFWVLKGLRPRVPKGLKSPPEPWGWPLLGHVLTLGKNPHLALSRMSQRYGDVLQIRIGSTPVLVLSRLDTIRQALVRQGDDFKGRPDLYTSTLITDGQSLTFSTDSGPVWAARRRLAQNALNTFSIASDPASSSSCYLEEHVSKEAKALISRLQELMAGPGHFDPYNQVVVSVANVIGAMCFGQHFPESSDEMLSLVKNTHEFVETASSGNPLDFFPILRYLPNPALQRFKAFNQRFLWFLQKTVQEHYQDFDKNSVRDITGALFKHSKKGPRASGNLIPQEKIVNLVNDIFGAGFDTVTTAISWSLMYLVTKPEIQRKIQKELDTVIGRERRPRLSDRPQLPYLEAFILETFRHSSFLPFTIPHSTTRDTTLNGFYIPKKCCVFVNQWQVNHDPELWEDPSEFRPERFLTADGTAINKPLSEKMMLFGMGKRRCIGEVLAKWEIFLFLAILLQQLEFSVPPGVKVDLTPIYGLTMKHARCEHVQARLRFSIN

plasma protein [5] = assay: In vitro plasma protein binding; format: in vitro ADME; settings: male, human
[6] = test system: pentylenetetrazole-induced convulsions; settings: dogs, ref Löscher et al., 2004, cited from earlier work
CYP1A1 = CYP1A1 (Homo sapiens, UniProt P04798); assay: In vitro enzyme inhibition, recombinant CYP, fluorescent metabolites; format: in vitro ADME
CYP1A1, sequence (P04798 whole entry): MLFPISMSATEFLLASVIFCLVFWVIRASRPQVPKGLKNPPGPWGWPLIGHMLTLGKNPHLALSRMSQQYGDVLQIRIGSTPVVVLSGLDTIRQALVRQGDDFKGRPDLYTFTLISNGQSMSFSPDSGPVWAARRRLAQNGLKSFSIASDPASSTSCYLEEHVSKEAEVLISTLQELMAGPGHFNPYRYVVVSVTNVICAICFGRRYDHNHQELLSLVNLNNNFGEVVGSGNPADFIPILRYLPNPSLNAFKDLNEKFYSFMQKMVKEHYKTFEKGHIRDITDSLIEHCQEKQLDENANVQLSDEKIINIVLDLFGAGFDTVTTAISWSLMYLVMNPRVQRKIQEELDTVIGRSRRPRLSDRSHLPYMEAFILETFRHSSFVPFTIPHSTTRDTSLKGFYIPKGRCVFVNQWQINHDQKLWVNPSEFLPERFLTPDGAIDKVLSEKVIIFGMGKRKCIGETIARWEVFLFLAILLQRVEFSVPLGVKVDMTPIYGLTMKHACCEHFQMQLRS

[7] = test system: canine idiopathic epilepsy; settings: epileptic dogs, dose escalation; ref Löscher et al., 2004; Rieck et al., 2006; cited from earlier work
plasma protein [8] = assay: In vitro plasma protein binding; format: in vitro ADME, rats; settings: rat
CYP2C9 = CYP2C9 (Homo sapiens, UniProt P11712); assay: In vitro enzyme inhibition, recombinant CYP, fluorescent metabolites
CYP2C9, sequence (P11712 whole entry): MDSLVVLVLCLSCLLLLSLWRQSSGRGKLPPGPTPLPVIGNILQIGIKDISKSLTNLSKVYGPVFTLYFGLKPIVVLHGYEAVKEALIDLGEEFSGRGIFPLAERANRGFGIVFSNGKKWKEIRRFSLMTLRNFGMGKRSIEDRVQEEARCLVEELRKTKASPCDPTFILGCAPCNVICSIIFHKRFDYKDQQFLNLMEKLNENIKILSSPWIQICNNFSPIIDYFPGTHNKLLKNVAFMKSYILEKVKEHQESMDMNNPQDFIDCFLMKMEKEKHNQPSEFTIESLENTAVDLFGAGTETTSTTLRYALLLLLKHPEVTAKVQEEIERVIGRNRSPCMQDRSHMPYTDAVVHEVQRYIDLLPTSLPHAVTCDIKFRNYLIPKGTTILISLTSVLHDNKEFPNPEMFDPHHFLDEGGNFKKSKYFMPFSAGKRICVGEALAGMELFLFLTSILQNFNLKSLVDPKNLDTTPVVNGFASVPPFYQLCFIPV

[9] = ref Heinecke & Thiel, 2001; cited from earlier work; remark: listed apart in the source
CYP2D6 = CYP2D6 (Homo sapiens, UniProt P10635); assay: In vitro enzyme inhibition, recombinant CYP, fluorescent metabolites; format: in vitro ADME
CYP2D6, sequence (P10635 whole entry): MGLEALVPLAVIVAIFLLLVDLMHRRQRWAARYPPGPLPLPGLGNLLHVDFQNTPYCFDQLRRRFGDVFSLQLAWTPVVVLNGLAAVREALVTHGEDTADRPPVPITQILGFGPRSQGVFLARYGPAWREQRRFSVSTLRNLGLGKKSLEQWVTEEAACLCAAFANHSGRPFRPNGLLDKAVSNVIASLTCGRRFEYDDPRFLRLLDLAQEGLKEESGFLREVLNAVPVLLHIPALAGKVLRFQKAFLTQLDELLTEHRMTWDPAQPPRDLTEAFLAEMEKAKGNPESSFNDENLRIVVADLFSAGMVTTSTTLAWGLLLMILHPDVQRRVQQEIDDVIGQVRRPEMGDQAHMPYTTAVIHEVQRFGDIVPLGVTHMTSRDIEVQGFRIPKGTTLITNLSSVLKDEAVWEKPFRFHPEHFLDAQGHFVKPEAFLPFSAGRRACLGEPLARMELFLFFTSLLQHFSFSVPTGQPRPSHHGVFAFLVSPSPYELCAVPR

plasma protein [10] = assay: In vivo plasma protein binding in dogs dosed with [14C] imepitoin; format: in vitro ADME, beagle dogs
CYP3A = assay: In vivo enzyme induction: erythromycin N-demethylase; parameters: species or system Wistar rats; settings: rats, 3–100 mg/kg p.o. once daily 7 days
CYP2D1 = assay: In vivo enzyme induction: dextromethorphan O-demethylase; parameters: species or system Wistar rats; settings: rats, 3–100 mg/kg p.o. once daily 7 days
[11] = dogs, 5 mg/kg, at time of seizure induction; ref Löscher et al., 2004; cited from earlier work

## O=C1N=C(N2CCOCC2)CN1c1ccc(Cl)cc1 [Imepitoin, 1-(4-chlorophenyl)-4-morpholino-imidazolin-2-one]
CYP2A
  induction of CYP2A: did not induce
NAT2
  induction of NAT2: did not induce
[1]
  lipophilicity: high lipophilicity
[2]; 20 mg/kg p.o. (3 male, 3 female dogs) and 1 mg/kg i.v. (3 female dogs)
  tolerability, clinical adverse events: well tolerated
[2]; after oral dosing, range males/females
  total radioactivity excreted urinary: 27–38%
[2]; females, 1 mg/kg i.v., 0–8 h
  Fraction excreted, Total: 30.62 (n < 3) % of intravenous dose
  Fraction excreted, Urine + Cage wash: 30.62 (n < 3) % of intravenous dose
[2]; females, 1 mg/kg i.v., 0–24 h
  Fraction excreted, Feces: 54.74 (n < 3) % of intravenous dose
  Fraction excreted, Total: 74.07 (33.4) % of intravenous dose
  Fraction excreted, Urine + Cage wash: 37.58 (19.1) % of intravenous dose
[2]; females, 1 mg/kg i.v., 0–48 h
  Fraction excreted, Feces: 68.33 (n < 3) % of intravenous dose
  Fraction excreted, Total: 85.43 (37.2) % of intravenous dose
  Fraction excreted, Urine + Cage wash: 39.87 (19.9) % of intravenous dose
[2]; females, 1 mg/kg i.v., 0–264 h
  Fraction excreted, Total: 104.43 (4.4) % of intravenous dose
[2]; females, 20 mg/kg p.o., 0–8 h
  Fraction excreted, Feces: 0.09 (n < 3) % of oral dose
  Fraction excreted, Total: 8.04 (n < 3) % of oral dose
  Fraction excreted, Urine + Cage wash: 7.95 (n < 3) % of oral dose
[2]; females, 20 mg/kg p.o., 0–24 h
  Fraction excreted, Feces: 40.62 (n < 3) % of oral dose
  Fraction excreted, Total: 63.58 (n < 3) % of oral dose
  Fraction excreted, Urine + Cage wash: 22.96 (n < 3) % of oral dose
[2]; females, 20 mg/kg p.o., 0–48 h
  Fraction excreted, Feces: 45.64 (22.0) % of oral dose
  Fraction excreted, Total: 76.52 (20.8) % of oral dose
  Fraction excreted, Urine + Cage wash: 30.88 (23.3) % of oral dose
[2]; females, 20 mg/kg p.o., 0–264 h
  Fraction excreted, Total: 93.84 (8.4) % of oral dose
[2]; males, 20 mg/kg p.o., 0–8 h
  Fraction excreted, Total: 0.58 (n < 3) % of oral dose
  Fraction excreted, Urine + Cage wash: 0.58 (n < 3) % of oral dose
[2]; males, 20 mg/kg p.o., 0–24 h
  Fraction excreted, Feces: 34.41 (92.2) % of oral dose
  Fraction excreted, Total: 51.11 (66.2) % of oral dose
  Fraction excreted, Urine + Cage wash: 16.70 (20.9) % of oral dose
[2]; males, 20 mg/kg p.o., 0–48 h
  Fraction excreted, Feces: 75.65 (12.3) % of oral dose
  Fraction excreted, Total: 97.51 (6.4) % of oral dose
  Fraction excreted, Urine + Cage wash: 21.86 (20.5) % of oral dose
[2]; males, 20 mg/kg p.o., 0–264 h
  Fraction excreted, Total: 104.74 (2.8) % of oral dose
[2]; urine + feces, range over dosing groups
  total radioactivity excreted within 48 h: 76–97% and 76.5–97.5%
NAT1
  induction of NAT1: did not induce
CYP2A6
  IC50: > 100 µM
CYP2A6; recombinant human CYP2A6
  Inhibition of the specific cytochrome P450 isoform IC50, 2A6: did not influence
CYP2C8
  influence on activity of CYP2C8: did not influence
Plasma protein [3]
  fraction unbound at 15 min, 10 μg/mL: 0.44
CYP2C19
  IC50: > 100 µM
CYP2C19; recombinant human CYP2C19
  Inhibition of the specific cytochrome P450 isoform IC50, 2C19: did not influence
[4]; 10 mg/kg
  Cmax: 1820 ± 920 ng/mL
  Tmax: 8.67 ± 3.1 h
[4]; 20 mg/kg
  Cmax: 3500 ± 1070 ng/mL
  Tmax: 10.7 ± 4 h
[4]; 50 mg/kg
  Cmax: 6410 ± 1750 ng/mL
  Tmax: 18 ± 3.8 h
[4]; 100 mg/kg
  Tmax: 8.67 ± 3.1 h
[4]; single dose 10 mg/kg p.o.
  Tlag obs: 3.67 ± 0.92 h
[4]; single dose 20 mg/kg p.o.
  Tlag obs: 5.67 ± 0.95 h
[4]; single dose 50 mg/kg p.o.
  Tlag obs: 4.17 ± 1.05 h
[4]; single dose 100 mg/kg p.o.
  Tlag obs: 2.25 ± 0.94 h
Plasma proteins
  radioactivity found in the washed precipitate (covalent binding): less than 0.5%
CYP2E1
  induction of CYP2E1: did not induce
CYP1A2
  IC50: > 100 µM
CYP1A2; recombinant human CYP1A2
  Inhibition of the specific cytochrome P450 isoform IC50, 1A2: did not influence
Plasma protein [5]; heparinized plasma
  fraction unbound at 15 min, 0.1 μg/mL: 0.43
  fraction unbound at 15 min, 1 μg/mL: 0.41
  fraction unbound at 15 min, 10 μg/mL: 0.43
Plasma protein [5]; plasma (heparinized)
  fraction unbound at 15 min: 0.41 to 0.43
[6]; 5 mg/kg orally twice daily, 5 mg/kg
  elevation of threshold for pentylenetetrazole-induced convulsions: significant increase
[6]; 40 mg/kg twice daily, 40 mg/kg
  elevation of threshold for pentylenetetrazole-induced convulsions: much stronger elevation of threshold
[6]; 40 mg/kg twice daily, listed as imepitoin, 40 mg/kg
  elevation of threshold for pentylenetetrazole-induced convulsions: greatly enhanced the drug-induced effect
[6]; repeated administration for 28 days
  development of tolerance toward anticonvulsant activity: no development of tolerance
CYP1A1
  IC50: 55 µM
[7]
  anti-epileptic activity versus historical phenobarbital data: comparable anti-epileptic activity
  tolerability versus phenobarbital: clearly superior to phenobarbital
Plasma protein [8]; heparinized plasma
  fraction unbound at 15 min, 0.1 μg/mL: 0.49
  fraction unbound at 15 min, 1 μg/mL: 0.5 ± 0.0064
  fraction unbound at 15 min, 10 μg/mL: 0.5 ± 0.011
Plasma protein [8]; plasma (heparinized, pool of five fasted animals)
  fraction unbound at 15 min: 0.49 to 0.5
CYP2C9
  IC50: > 100 µM
CYP2C9; recombinant human CYP2C9
  Inhibition of the specific cytochrome P450 isoform IC50, 2C9: did not influence
[9]
  solubility in acidic media such as gastric fluid: more readily soluble in acidic media
  solubility in aqueous media: very low solubility in aqueous media
CYP2D6
  IC50: > 100 µM
CYP2D6; recombinant human CYP2D6
  Inhibition of the specific cytochrome P450 isoform IC50, 2D6: did not influence
Plasma protein [10]; 2 h after 20 mg/kg p.o. or 1 mg/kg i.v.
  in vivo plasma protein binding: 59–69%
Plasma protein [10]; 8 h after 20 mg/kg p.o. or 1 mg/kg i.v.
  in vivo plasma protein binding: 62–72%
Plasma protein [10]; female dogs, 1 mg/kg i.v., 2 h after dosing, mean ± SEM
  In vivo protein binding: 59 ± 0.69%
Plasma protein [10]; female dogs, 1 mg/kg i.v., 4 h after dosing, mean ± SEM
  In vivo protein binding: 66 ± 2.66%
Plasma protein [10]; female dogs, 1 mg/kg i.v., 8 h after dosing, mean ± SEM
  In vivo protein binding: 72 ± 1.33%
Plasma protein [10]; female dogs, 20 mg/kg p.o., 2 h after dosing
  In vivo protein binding: 69 (n < 3) %
Plasma protein [10]; female dogs, 20 mg/kg p.o., 4 h after dosing, mean ± SEM
  In vivo protein binding: 66 ± 0.69%
Plasma protein [10]; female dogs, 20 mg/kg p.o., 8 h after dosing, mean ± SEM
  In vivo protein binding: 62 ± 7.68%
Plasma protein [10]; male dogs, 20 mg/kg p.o., 2 h after dosing
  In vivo protein binding: 60 (n < 3) %
Plasma protein [10]; male dogs, 20 mg/kg p.o., 4 h after dosing, mean ± SEM
  In vivo protein binding: 63 ± 1.62%
Plasma protein [10]; male dogs, 20 mg/kg p.o., 8 h after dosing, mean ± SEM
  In vivo protein binding: 67 ± 2.71%
CYP3A
  induction of CYP3A: did not induce
CYP2D1
  induction of CYP2D1: did not induce
[11]
  peak plasma concentration: 1400 to 1700 ng/mL

— paper PMC4280904 (Journal of Veterinary Pharmacology and Therapeutics, 2014)
